Patent publication US12528821B2, “pH-dependent composition matters useful for study and diagnosis of alzheimer's disease” (Purdue Research Foundation, priority 2019, dated 2026)

Key:
[1] = pH-sensitivity: fluorescence intensity at various pH conditions; assay type: physicochemical
Procedure: The cell culture medium was treated with dilute HCl and NaOH solutions to obtain different solutions with pH of 1.0 to 9.0 for the assay. […] Different dilutions for each pH condition was prepared at concentrations of 0.5, 1.0, 2.0, and 5.0 μM in a 96-well plate.

[2] = Atomic Force Microscopy analysis of aggregation; assay type: physicochemical; settings: compared with non-conjugated Aβ1-42
Procedure: AFM sample preparation: The manufacturer's protocol was followed for sample preparation, image acquiring and analysis.
1 mM Aβ solution was prepared by adding HFIP directly to the vial (0.5 mg Aβ or hAβ^pH or recombinant Aβ(M1-42) in 93.35 μL HFIP). The peptide should be completely dissolved. The solution was incubated at room temperature (RT) for at least 30 min. HFIP was allowed to evaporate in the open tubes overnight in the fume hood or using Argon/Nitrogen gas and then dry down under high vacuum for 1 h without heating to remove any remaining traces of HFIP and moisture. The resulting peptide thin clear film formed at the bottom of the tubes. The tubes containing dried peptides were stored at −20° C. until further use.
Prior to use, tube containing peptide film was allowed to come to RT. Then, 5 mM Aβ DMSO stock was prepared by adding 20 μL fresh dry DMSO to 0.45 mg. Pipette thoroughly, scraping down the sides of the tube near the bottom to ensure complete resuspension of peptide film. Vortex well (˜30 sec) and pulse in a microcentrifuge to collect solution at the bottom of the tube. Sonicate 5 mM Aβ DMSO solution for 10 min. Use this preparation as the starting material for unaggregated Aβ and oligomeric Aβ. For oligomer formation, samples were incubated at 4° C. for 24 hr.
Sample preparation was done with proper sterile technique with sterile media and MilliQ-water. […]

N9 microglial cells = assay: Phagocytosis assay with live cells (IncuCyte live-cell imaging); assay type: cell-based, mouse
Procedure: (§1) To visualize the phagocytosis of hAβ^pH in live microglial cells, immortalized human microglial clone 3 (HMC3) cells and mouse BV2 and N9 microglial cells were treated with 0.1-5.0 μM doses of hAβ^pH and live-cell images were acquired every 30 minutes for 24 hours on the IncuCyte™ ZOOM Live Content Imaging system (FIGS. 3A-3B). The green channel on the IncuCyte™ ZOOM system allows for excitation and emission wavelengths of 460/524 nm and thus the hAβ^pH reporter was optimal for use on the instrument.
(§2) Cells were seeded at 5000 cells per well (200 μL per well) in a 96-well flat bottom plate (Falcon) for approximately 16 hours (overnight). The lyophilized hAβ^pH conjugate was dissolved in the culture medium for each cell type and filtered using 0.22 μm syringe filter. The adherent cells (BV2, N9, HMC3) were treated with a final concentration of hAβ^pH at 0, 0.1, 0.5, 1.0, 2.0, and 5.0 μM by replacing one-half of the culture medium (100 μL) with 2× concentration. Two technical replicates were used for each treatment concentration. The plates were immediately placed in the IncuCyte® S3 Live-Cell Analysis System (Essen BioScience) and four images per well were captured at 30-minute time intervals for 24 hours. The fluorescence intensity, cell confluence, and the integrated fluorescence intensity data was obtained and analyzed using the GraphPad Prism® software. The total hAβ^pH phagocytosis per concentration was calculated as:
[formula] wherein, Total Integrated Intensity is defined as the total sum of hAβ^pH's fluorescent intensity in the image and Relative Total Integrated Intensity is defined as Total Integrated Intensity (t)—Total Integrated Intensity (t=0) for each concentration. Flow Cytometry Analysis of BV-2 Microglia Phagocytosis

BV2 microglial cells [3] = assay: as above; assay type: cell-based, mouse
Procedure: Cells were seeded at 5000 cells per well (200 μL per well) in a 96-well flat bottom plate (Falcon) for approximately 16 hours (overnight). […] Two technical replicates were used for each treatment concentration. The plates were immediately placed in the IncuCyte® S3 Live-Cell Analysis System (Essen BioScience) and four images per well were captured at 30-minute time intervals for 24 hours. The fluorescence intensity, cell confluence, and the integrated fluorescence intensity data was obtained and analyzed using the GraphPad Prism® software.
Flow Cytometry Analysis of BV-2 Microglia Phagocytosis

HMC3 cells = assay: as above; assay type: cell-based, human
Procedure: as §1
as §2, with “The plates were immediately placed in the IncuCyte® S3 Live-Cell Analysis System (Essen BioScience) and four images per well were captured at 30-minute time intervals for 24 hours.” left out, “as: […]” for “as:”

BV2 microglial cells [4] = assay: Flow cytometry analysis of BV-2 microglia phagocytosis; assay type: cell-based, mouse; settings: 0.5 and 1.0 μM for 1 hour
Procedure: BV2 microglial cells were seeded at a density of 250 k cells/well in a 6-well plate for around 14 hr overnight. […] After 2 hours, the plate was brought to the hood, placed on ice to stop phagocytosis, and cell culture medium containing hAβ^pH was aspirated. The cells were washed once with cold PBS. Next, the cells were treated with ice cold PBS with 2 mM EDTA for 2 mins on ice to initiate detachment of the cells from the wells. The cells were fully detached from the wells with very gentle pipetting and transferred into falcon tubes. The cells were centrifuged once at 1400 RPM for 3 mins. The PBS/EDTA supernatant was aspirated out and the cell pellets were re-suspended in FACS buffer (PBS, 25 mM HEPES, 2 mM EDTA, and 2% FBS). Five minutes before analysis of each sample tube, Propidium Iodide (PI) was added to the sample (40 ng/1 mL cell suspension) for staining of live/dead cells. […] The filed were then analyzed on FlowJo V10 software. Gating strategy is indicated in FIG. 4 on the main manuscript.

[5] = system: HMC3, BV2, and N9 microglial cells; assay: Confocal imaging of actin filaments and nuclei in paraformaldehyde-fixed phagocytic microglial cells; assay type: cell-based, human, mouse; settings: 5.0 μM for 2 hours, fixed with 4% paraformaldehyde
Procedure: Fixation of cells and using target protein markers along with hAβ^pH can inform us about the molecular mechanisms involved in microglial phagocytosis with confocal microscopy. To confirm that the hAβ^pH reporter can maintain its fluorescence in fixed cells, HMC3, BV2, and N9 microglial cells were fixed with common cell staining reagents. The cells were treated with 5.0 μM of hAβ^pH for 2 hours and fixed with 4% paraformaldehyde followed by the addition of the phalloidin dye to visualize cellular integrity via the staining of the F-actin filaments (FIG. 5).
For labeling the cells with Phalloidin and DAPI, 20,000 cells/250 μL were plated in 14 mm microwells of the 35 mm glass bottom dishes (MatTek #P35G-1.5-14-C) and kept overnight. The cells were treated with 5.0 μM hAβ^pH for 2 hours on the next day. Then the medium was aspirated, and cells were fixed with 4% paraformaldehyde for 20 mins, and then gently washed once with PBS. Phalloidin-iFluor 555 reagent was diluted at a concentration of 1 μL/mL in PBS and added to the fixed cells for 10 minutes for staining the actin filaments. To label the nuclei, DAPI was diluted at a concentration of 1 μL/mL. […] Fluorescence images of phagocytic microglial cells were captured using 40× and 60× objectives on the Nikon AR-1 MP confocal laser microscope. […]

HMC3, N9, and BV2 cells = assay: Confocal imaging of intracellular acidic organelles (LysoTracker) in fixed phagocytic microglial cells; assay type: cell-based, human, mouse; settings: 5.0 μM, 2-hour time point
Source text: To visualize the localization of the hAβ^pH within the microglial cell cytoplasm, the acidic intracellular compartments were labeled with LysoTracker™ DND-99 that stains the lysosomal organelles of the cells. […] It has been recently shown that microglia in vitro recognize and phagocytose Aβ peptides through scavenger receptors,^8 Toll-Like Receptor 2 (TLR2),^17 Cluster of Differentiation 14 (CD14),^18 and Triggering Receptors Expressed on Myeloid Cells 2 (TREM2).^19 Thus, our hAβ^pH reporter serves as a valuable chemical tool in delineating the role of several receptor proteins involved in the Aβ uptake of live and fixed microglial cells using cell staining reagents and by using specific antibodies such as anti-CD14, anti-TREM2, etc. Additionally, the role of inflammation, including the effects of inflammatory cytokines, such as IL-la and TNF-α, on Aβ clearance is not resolved. Thus, our hAβ^pH will be a valuable for studying hAβ^pH phagocytosis under the influence of inflammatory cytokines or small molecule inhibitors.
LysoTracker® Red DND-99 was used for labeling the intracellular organelles of the cells to observe localization of hAβ^pH sensors inside the cells after phagocytosis. […] Fluorescence images of phagocytic microglial cells were captured using 40× and 60× objectives on the Nikon AR-1 MP confocal laser microscope. […]

primary mouse microglia = assay: Phagocytic uptake by primary microglia ex vivo (confocal, flow cytometry); assay type: cell-based
[6] = system: primary immunopanned rat astrocytes; assay: Uptake by primary immunopanned astrocytes in serum-free conditions; assay type: cell-based; settings: fixed, GFAP stained
[7] = system: microglia and astrocytes in rat hippocampal tissue sections; assay: Phagocytosis assay in rat hippocampal tissue slices (in situ); settings: IBA1+ and GFAP+ staining
[8] = system: cortical IBA1+ microglia and GFAP+ astrocytes; assay: Stereotaxic microinjection in the somatosensory cortex, staining of fixed tissue sections; assay type: in vivo, mouse
[9] = system: retinal IBA1+ microglia and GFAP+ astrocytes; assay: Subretinal injection, in vivo uptake by retinal microglia and astrocytes; settings: rat
[10] = system: microglia and astrocytes in the cerebral cortex; assay: In vivo two-photon imaging of the barrel cortex through a cranial window after topical application; design: species or system mouse
[11] = P7 mouse, periventricular white matter, 72 h

RODO-conjugated hAβ^pH: conjugate of the Aβ1-42 peptide with pHrodo-Red (RODO) fluorophore
pH range of increased fluorescence ([1]; 0.5, 1.0, 2.0, and 5.0 μM, FIG. 1C): 1.0-7.0

hAβ^pH: pH-dependent fluorescent conjugate of human Aβ1-42 peptide linked to amine-reactive Protonex Green 500, SE (PTXG) fluorophore
fluorescence intensity at the physiological pH of 7.4 ([1]; pH 7.4): did not show an increased fluorescence intensity
ability to aggregate (AFM) [2]: aggregate similar to the non-conjugated Aβ
intracellular fluorescence beyond 18 hours (N9 microglial cells; 5.0 μM): began to decrease
time of peak intracellular green fluorescence (N9 microglial cells; 5.0 μM): 12 to 18 h
intracellular fluorescence (phagocytosis) over time (N9 microglial cells; 1.0 and 2.0 μM doses): gradual increase in intracellular fluorescence
intracellular fluorescence during the 18-hour time period (BV2 microglial cells [3]; 5.0 μM dose): increased intracellular fluorescence
intracellular fluorescence (phagocytosis) over time (BV2 microglial cells [3]; 1.0 and 2.0 μM doses): gradual increase in intracellular fluorescence
phagocytosis (HMC3 cells; 5.0 μM): increased phagocytosis
time period of increased intracellular fluorescence (HMC3 cells; 1.0 and 2.0 μM doses, followed by gradual decrease): 1 to 8 h
green fluorescence in live (PI-) cells (flow cytometry) (BV2 microglial cells [4]): green fluorescence is measured
fluorescence retained in fixed cells (confocal, phalloidin) [5]: showed green fluorescence
co-localization with LysoTracker dye (HMC3, N9, and BV2 cells): confirmed the presence of hAβ^pH within the acidic phagosomes
green fluorescence in live (ZV-) cells (flow cytometry) (primary mouse microglia; 0.5, 1.0, and 2.0 μM for 1 hour): green fluorescence is measured
phagocytosis ex vivo (confocal, LysoTracker Red) (primary mouse microglia; defined, reduced-serum media, fixed cells): phagocytose Aβ^pH ex vivo
phagocytosis by astrocytes [6]: also phagocytose Aβ^pH
phagocytosis in situ [7]: phagocytosed by both microglia and astrocytes in situ
phagocytic uptake at the 24 h timepoint ([8]; P7 mouse, periventricular white matter, 24 h): phagocytic uptake of Aβ^pH by IBA1^+ microglia and GFAP^+ astrocytes
fluorescence in GFAP+ astrocytes at 72 h [8, 11]: do not show any green fluorescence
fluorescence in IBA1+ microglia at 72 h [8, 11]: bright green fluorescence
fluorescence within microglia vs astrocytes ([8]; pia and white matter regions): more Aβ^pH uptake by microglia compared to astrocytes
fluorescence in retinal astrocytes (quantification) ([9]; 3 time points, FIG. 11G): No fluorescence was detected
phagocytosis by GFAP+ retinal astrocytes in vivo ([9]; FIG. 11F): phagocytose Aβ^pH in vivo
fluorescence in cell somata after topical application ([10]; mouse barrel cortex, two-photon imaging): fluorescence increases in cell somata
colocalization with IBA1, CD68, and GFAP ([10]; perfusion-fixed 1.5 to 3 hours after imaging, cortical slices): most Aβ^pH is taken up by microglia and astrocytes in vivo
